Experimental data taken from ChEMBL document CHEMBL1139527, “Synthesis, modeling, and in vitro activity of (3'S)-epi-K-252a analogues. Elucidating the stereochemical requirements of the 3'-sugar alcohol on trkA tyrosine kinase activity” (J Med Chem, 2005).

Experiments:
[1] = molecular target: T1, High affinity nerve growth factor receptor (Homo sapiens, UniProt P04629); experiment: Inhibition of baculovirus expressed human trkA
[2] = Inhibition of [gamma-32P]-ATP binding to protein kinase C (1.5 ng) done for 10 min in pH 7.4 at 37 degree C with compound dissolved in DMSO using in In-Plate assay
[3] = molecular target: T1, High affinity nerve growth factor receptor; experiment: Inhibition of NGF-stimulated TrkA phosphorylation in NIH3T3 cells; format: cell-based
[4] = Relative binding to PKC and TrkA

T1 sequence (P04629 whole entry): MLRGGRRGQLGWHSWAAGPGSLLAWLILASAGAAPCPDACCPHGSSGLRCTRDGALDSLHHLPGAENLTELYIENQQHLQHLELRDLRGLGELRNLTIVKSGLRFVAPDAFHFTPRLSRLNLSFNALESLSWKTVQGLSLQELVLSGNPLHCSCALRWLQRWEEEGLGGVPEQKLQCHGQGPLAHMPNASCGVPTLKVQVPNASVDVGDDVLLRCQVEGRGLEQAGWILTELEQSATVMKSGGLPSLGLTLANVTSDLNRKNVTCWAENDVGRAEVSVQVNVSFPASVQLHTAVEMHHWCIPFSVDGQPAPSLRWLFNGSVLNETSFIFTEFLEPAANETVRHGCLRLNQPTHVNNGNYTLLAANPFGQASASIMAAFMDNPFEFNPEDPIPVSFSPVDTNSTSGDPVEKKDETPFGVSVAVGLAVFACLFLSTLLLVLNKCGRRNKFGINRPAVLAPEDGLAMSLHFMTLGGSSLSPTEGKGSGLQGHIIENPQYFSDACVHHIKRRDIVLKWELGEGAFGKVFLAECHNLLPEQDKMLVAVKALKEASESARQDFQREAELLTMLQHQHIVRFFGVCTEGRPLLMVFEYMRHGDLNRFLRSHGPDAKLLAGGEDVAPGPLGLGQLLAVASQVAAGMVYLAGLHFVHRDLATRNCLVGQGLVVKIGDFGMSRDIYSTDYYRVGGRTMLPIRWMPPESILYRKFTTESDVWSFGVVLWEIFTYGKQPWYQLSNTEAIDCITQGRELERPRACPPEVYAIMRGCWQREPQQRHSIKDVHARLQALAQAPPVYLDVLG

## C[C@@]1(O)C[C@H]2O[C@]1(C)n1c3ccccc3c3c4c(c5c6ccccc6n2c5c31)C(=O)NC4
[1]
  IC50: 0.02 µM
[2]
  IC50: 0.31 µM

## C[C@]1(O)C[C@H]2O[C@]1(C)n1c3ccccc3c3c4c(c5c6ccccc6n2c5c31)C(=O)NC4
[1]
  IC50: 0.003 µM
[3]
  IC50: < 0.01 µM
[2]
  IC50: 0.85 µM

## CC1(C)O[C@@H](n2c3ccccc3c3c4c(c5c6ccccc6[nH]c5c32)CNC4=O)C[C@]1(O)CO
[1]
  IC50: 0.004 µM
[2]
  IC50: 0.218 µM

## COC(=O)[C@]1(O)C[C@H]2O[C@]1(C)n1c3ccccc3c3c4c(c5c6ccccc6n2c5c31)C(=O)NC4
[2]
  IC50: 0.114 µM

## CC1(C)O[C@@H](n2c3ccccc3c3c4c(c5c6ccccc6[nH]c5c32)CNC4=O)C[C@@]1(O)CO
[1]
  IC50: 0.004 µM
[2]
  IC50: 0.079 µM

## C[C@]12O[C@H](C[C@@]1(O)C(N)=O)n1c3ccccc3c3c4c(c5c6ccccc6n2c5c31)CNC4=O
[1]
  IC50: 0.029 µM
[2]
  IC50: 0.663 µM

## CO[C@]1(CO)C[C@H]2O[C@]1(C)n1c3ccccc3c3c4c(c5c6ccccc6n2c5c31)C(=O)NC4
[4]
  Ratio: 39
[1]
  IC50: 0.0029 µM
[2]
  IC50: 0.114 µM

## COC(=O)[C@@]1(O)C[C@H]2O[C@]1(C)n1c3ccccc3c3c4c(c5c6ccccc6n2c5c31)C(=O)NC4 [K-252A]
[2]
  IC50: 0.25 µM
